ChEMBL document CHEMBL2073788, “Troglitazone-induced intrahepatic cholestasis by an interference with the hepatobiliary export of bile acids in male and female rats. Correlation with the gender difference in troglitazone sulfate formation and the inhibition of the canalicular bile salt export pump (Bsep) by troglitazone and …” (Toxicology, 2001)
Counter-ions that a name gives are not always drawn.

Columns and labels:
Bile salt export pump [1] = biological target: T1, Bile salt export pump (Rattus norvegicus, UniProt O70127); assay: TP_TRANSPORTER: inhibition of Taurocholate uptake (Taurocholate: 1 uM) in liver canalicular membrane vesicle from male rat; type: functional, cell membranes
T1 sequence (O70127 whole entry): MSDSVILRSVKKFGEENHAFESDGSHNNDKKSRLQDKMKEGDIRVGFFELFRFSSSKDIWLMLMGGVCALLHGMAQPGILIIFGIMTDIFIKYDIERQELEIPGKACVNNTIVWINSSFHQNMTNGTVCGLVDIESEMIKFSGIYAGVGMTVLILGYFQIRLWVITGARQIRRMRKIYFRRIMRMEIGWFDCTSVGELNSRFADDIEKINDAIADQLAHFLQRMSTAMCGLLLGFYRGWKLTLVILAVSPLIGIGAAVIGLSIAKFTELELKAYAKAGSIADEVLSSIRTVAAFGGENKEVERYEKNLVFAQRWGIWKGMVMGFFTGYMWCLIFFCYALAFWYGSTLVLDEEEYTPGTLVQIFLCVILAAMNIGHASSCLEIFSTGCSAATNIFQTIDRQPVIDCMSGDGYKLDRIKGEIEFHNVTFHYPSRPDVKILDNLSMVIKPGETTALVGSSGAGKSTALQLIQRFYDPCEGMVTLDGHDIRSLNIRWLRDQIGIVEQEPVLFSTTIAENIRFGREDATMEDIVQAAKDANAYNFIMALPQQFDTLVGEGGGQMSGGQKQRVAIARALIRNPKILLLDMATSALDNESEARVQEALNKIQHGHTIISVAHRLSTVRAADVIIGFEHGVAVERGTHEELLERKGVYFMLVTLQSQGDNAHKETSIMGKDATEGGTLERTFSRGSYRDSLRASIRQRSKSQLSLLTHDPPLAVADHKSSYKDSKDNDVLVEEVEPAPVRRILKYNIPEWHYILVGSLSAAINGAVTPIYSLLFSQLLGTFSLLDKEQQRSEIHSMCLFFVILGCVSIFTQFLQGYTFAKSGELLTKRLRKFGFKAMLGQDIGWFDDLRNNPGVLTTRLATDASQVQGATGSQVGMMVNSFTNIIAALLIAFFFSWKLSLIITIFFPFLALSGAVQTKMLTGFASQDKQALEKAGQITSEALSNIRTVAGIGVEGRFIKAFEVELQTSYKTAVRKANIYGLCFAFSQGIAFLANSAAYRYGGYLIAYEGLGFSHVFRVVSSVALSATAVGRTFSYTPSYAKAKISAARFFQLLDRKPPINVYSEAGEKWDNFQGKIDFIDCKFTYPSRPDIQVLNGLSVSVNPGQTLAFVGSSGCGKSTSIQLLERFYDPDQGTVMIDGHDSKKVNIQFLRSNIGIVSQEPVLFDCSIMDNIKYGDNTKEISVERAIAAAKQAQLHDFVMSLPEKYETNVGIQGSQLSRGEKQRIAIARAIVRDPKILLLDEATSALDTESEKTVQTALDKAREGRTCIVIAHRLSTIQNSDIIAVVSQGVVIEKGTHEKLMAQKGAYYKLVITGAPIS

Bile salt export pump [2] = biological target: T1, Bile salt export pump; assay: TP_TRANSPORTER: inhibition of Taurocholate uptake (Taurocholate: 1 uM) in liver canalicular membrane vesicle from female rat; type: functional, cell membranes

Row | IC50 (Bile salt export pump [1]) [µM] | IC50 (Bile salt export pump [2]) [µM] | Structure (SMILES)
1 | 8.6 | 15.7 | COc1ccc(Cl)cc1C(=O)NCCc1ccc(S(=O)(=O)NC(=O)NC2CCCCC2)cc1 [GLYBURIDE]
2 | 0.4 | 0.6 | Cc1c(C)c2c(c(C)c1OS(=O)(=O)O)CCC(C)(COc1ccc(CC3SC(=O)NC3=O)cc1)O2 (stereo not given) [TROGLITAZONE SULFATE]
3 | – | 3.9 | Cc1c(C)c2c(c(C)c1O)CCC(C)(COc1ccc(CC3SC(=O)NC3=O)cc1)O2 (stereo not given) [TROGLITAZONE]
